Measured values: patent US8119675B2, “Benzimidazole derivatives” (Merck Patent GmbH, priority 2007, dated 2012)

Experiments:
SGLT1 = target: T1, SGLT1 (Homo sapiens, UniProt P13866); test: 14C-AMG uptake in BHK cells transfected with SGLT1 (96-well cell-based assay); conditions: 50 μM AMG, 37° C., 90 min
T1 construct: expressed in transfected cells
T1 sequence (P13866 1-664): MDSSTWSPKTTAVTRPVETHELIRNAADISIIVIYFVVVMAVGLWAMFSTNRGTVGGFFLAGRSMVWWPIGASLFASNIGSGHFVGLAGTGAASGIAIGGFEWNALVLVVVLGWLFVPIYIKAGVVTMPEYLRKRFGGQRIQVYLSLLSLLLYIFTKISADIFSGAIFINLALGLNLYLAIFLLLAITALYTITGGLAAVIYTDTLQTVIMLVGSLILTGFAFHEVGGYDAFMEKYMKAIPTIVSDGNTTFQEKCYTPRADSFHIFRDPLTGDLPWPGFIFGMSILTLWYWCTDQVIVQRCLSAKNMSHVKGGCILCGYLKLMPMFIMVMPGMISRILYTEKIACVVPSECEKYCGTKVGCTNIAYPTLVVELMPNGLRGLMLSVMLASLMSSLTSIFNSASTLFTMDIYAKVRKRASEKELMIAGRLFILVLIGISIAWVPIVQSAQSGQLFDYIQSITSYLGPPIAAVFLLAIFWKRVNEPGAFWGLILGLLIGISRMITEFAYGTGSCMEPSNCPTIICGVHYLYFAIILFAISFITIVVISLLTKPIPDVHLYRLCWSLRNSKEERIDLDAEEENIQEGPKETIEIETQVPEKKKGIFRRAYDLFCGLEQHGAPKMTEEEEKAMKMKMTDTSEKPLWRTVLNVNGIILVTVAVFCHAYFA
Text: (§1) The compounds can be tested for their SGLT inhibition properties by means of BHK cells expressing SGLT1 and SGLT2. The production of the cells and the testing can be carried out as described below.
To construct the SGLT1 expression vector (KL225), the SLC5A1 gene (homologous to NM_000343) was amplified from a cDNA library using standard PCR technology and cloned over NheI/XhoI sites into the pcDNA3.1 expression vector (Invitrogen) containing neomycin as a selection marker. In this vector, transcription uses the enhancer/promoter of human cytomegalovirus.
(§2) The final vector KL225 together with an additional vector containing a dihydrofolate reductase gene as a selection marker was introduced into cells. Transfection into BHK21 cells (ATCC CCL-10), cultivated in DMEM medium (GIBCO/BRL), supplemented with 10% foetal calf serum (FCS) and 20 mM glutamine, was carried out using calcium phosphate transfections according to Graham, F. L. and van der Ebb, A. J. (1973), Virology 52: 456 with 5-20 μg of uncut plasmids for 10^7 cells. Stable transfectants were selected in medium containing 1 mg/ml of G418 (GIBCO/BRL) and 20-5000 nM methotrexate as final concentration, where only cells which expressed the neomycin gene and overexpressed the dhfr gene were able to grow. After growth for 2-3 weeks, the cells were cloned (0.5 cells/well) and the clones were investigated for SGLT expression in radioactivity uptake tests.
(§3) The uptake of ^14C-α-methyl-D-glucopyranoside (AMG) in, for example, Xenopus oocytes injected with the corresponding cRNA has been described in principle (for example Wen-Sen Lee et al. (1994), J. Biol. Chem. 269, 12032-12039; Guofeng You et al. (1995), J. Biol. Chem. 270, 29365-29371).
(§4) A 96-well cell-based assay was developed and adapted to HTS requirements:
(§5) BHK cells (transfected with SGLT1 or SGLT2) were seeded into 96-well microtitre plates (Cultureplates, Perkin Elmer). After at least 24 h, medium was removed, and the cell layer was washed with assay buffer (140 mM NaCl, 2 mM KCl, 1 mM CaCl2, 1 mM MgCl2, 10 mM HEPES, 5 mM Tris, adjusted to pH 7.4 using 1 M KOH). After addition of 40 μl of assay buffer, 50 μl of AMG (50 μM for SGLT1 and 2 mM for SGLT2) in the presence or absence of compounds, the cells were incubated in a total volume of 100 μl at 37° C. for 90 min. Supernatant was removed by suction and discarded. Cells were washed and lysed by addition of 50 μl of water. After 10 min at room temperature, 200 μl of Micrsoscint 40 (Perkin Elmer) were added. The radioactivity was counted in a Topcount microplate scintillation counter (Perkin Elmer). The non-specific uptake was determined in sodium-free assay buffer (266 mM sucrose, 2 mM KCl, 1 mM CaCl2, 1 mM MgCl2, 10 mM HEPES, 5 mM Tris, adjusted to pH 7.4 using 1 M KOH).

SGLT2 = target: T2, SGLT2 (Homo sapiens, UniProt P31639); test: 14C-AMG uptake in BHK cells transfected with SGLT2 (96-well cell-based assay); conditions: 2 mM AMG, 37° C., 90 min
T2 construct: expressed in transfected cells
T2 sequence (P31639 1-672): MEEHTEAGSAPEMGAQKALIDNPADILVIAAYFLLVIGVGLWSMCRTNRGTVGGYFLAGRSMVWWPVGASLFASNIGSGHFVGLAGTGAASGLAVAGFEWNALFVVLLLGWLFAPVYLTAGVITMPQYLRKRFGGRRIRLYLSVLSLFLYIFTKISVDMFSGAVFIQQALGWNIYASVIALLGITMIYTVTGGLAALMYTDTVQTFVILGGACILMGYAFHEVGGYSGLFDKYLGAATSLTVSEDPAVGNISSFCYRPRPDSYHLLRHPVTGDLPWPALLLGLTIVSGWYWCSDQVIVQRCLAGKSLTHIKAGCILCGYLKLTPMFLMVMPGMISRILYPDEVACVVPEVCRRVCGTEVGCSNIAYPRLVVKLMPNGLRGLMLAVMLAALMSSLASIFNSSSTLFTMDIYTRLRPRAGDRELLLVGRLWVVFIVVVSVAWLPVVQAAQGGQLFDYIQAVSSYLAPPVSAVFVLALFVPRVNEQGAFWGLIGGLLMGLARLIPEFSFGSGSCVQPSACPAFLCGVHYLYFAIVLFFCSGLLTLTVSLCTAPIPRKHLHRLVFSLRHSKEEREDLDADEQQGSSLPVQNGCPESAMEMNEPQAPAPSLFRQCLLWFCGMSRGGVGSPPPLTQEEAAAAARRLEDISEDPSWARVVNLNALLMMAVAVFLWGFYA
Text: as §1
To construct the SGLT2 expression vector (KL224), the SLC5A2 gene (homologous to NM_003041) was amplified from a cDNA library using standard PCR technology and cloned over NheI/XhoI sites into PCI-neo expression vector (Promega) containing neomycin as a selection marker. In this vector, transcription uses the enhancer/promoter of human cytomegalovirus and the SV40 polyadenylation signal.
as §2, with “KL224” for “KL225”
as §3, §4, §5

SMILES	IC50 (SGLT1) [µM]	IC50 (SGLT2) [µM]
Cc1cccc(C)c1Cn1c(-c2ccc(F)cc2OCC(N)=O)nc2ccccc21 [Compound A17, 2-{2-[1-(2,6-Dimethylbenzyl)-1H-benzimidazol-2-yl]-5-fluorophenoxy}acetamide]	> 10	0.01 to 1
Cc1cccc(C)c1Cn1c(-c2ccccc2OC2CCNC2=O)nc2ccccc21 (centres unmarked) [Compound A26, 3-{2-[1-(2,6-Dimethylbenzyl)-1H-benzimidazol-2-yl]phenoxy}pyrrolidin-2-one]	> 10	1 to 10
CNc1nnc(-c2ccccc2-c2nc3ccccc3n2Cc2c(C)cccc2C)o1 [Compound A31]	–	0.01 to 1
COc1cccc(-c2nc3ccccc3n2Cc2c(C)cccc2C)c1OCC(N)=O [Compound A11, 2-{2-[1-(2,6-Dimethylbenzyl)-1H-benzimidazol-2-yl]-6-methoxyphenoxy}acetamide]	–	1 to 10
Cc1cccc(C)c1Cn1c(-c2ccccc2OCC(N)=O)nc2cccc(Cl)c21 [Compound A24, 2-{2-[7-Chloro-1-(2,6-dimethylbenzyl)-1H-benzimidazol-2-yl]phenoxy}acetamide]	1 to 10	0.01 to 1
Cc1cccc(C)c1Cn1c(-c2ccccc2OCC(N)=O)nc2ccc(F)cc21 [Compound A4, 2-{2-[1-(2,6-Dimethylbenzyl)-6-fluoro-1H-benzimidazol-2-yl]phenoxy}acetamide]	> 10	0.01 to 1
COc1ccc(-c2nc3ccccc3n2Cc2c(C)cccc2C)c(OCC(N)=O)c1 [Compound A13, 2-{2-[1-(2,6-Dimethylbenzyl)-1H-benzimidazol-2-yl]-5-methoxyphenoxy}acetamide]	> 10	1 to 10
Cc1cccc(C)c1Cn1c(-c2ccccc2OCC(N)=O)nc2cc(F)c(F)cc21 [Compound A5, 2-{2-[1-(2,6-Dimethylbenzyl)-5,6-difluoro-1H-benzimidazol-2-yl]phenoxy}acetamide]	> 10	0.01 to 1
Cc1cccc(C)c1Cn1c(-c2ccccc2OCC(N)=O)nc2ccccc21 [Compound A2, 2-{2-[1-(2,6-dimethylbenzyl)-1H-benzimidazol-2-yl]-phenoxy}acetamide]	> 10	0.01 to 1
COc1cc(C)c(-c2nc3ccc(F)c(F)c3n2Cc2c(C)cccc2C)c(OCC(N)=O)c1 [Compound A30, 2-{2-[1-(2,6-Dimethylbenzyl)-6,7-difluoro-1H-benzimidazol-2-yl]-5-methoxy-3-methylphenoxy}acetamide]	1 to 10	0.01 to 1
Cc1cccc(C)c1Cn1c(-c2ccccc2OCC(N)=O)nc2cccc(Br)c21 [Compound A23, 2-{2-[7-Bromo-1-(2,6-dimethylbenzyl)-1H-benzimidazol-2-yl]phenoxy}acetamide]	> 10	> 10
Cc1cccc(C)c1Cn1c(-c2cccc(C)c2OCC(N)=O)nc2ccccc21 [Compound A12, 2-{2-[1-(2,6-Dimethylbenzyl)-1H-benzimidazol-2-yl]-6-methylphenoxy}acetamide]	> 10	1 to 10
Cc1ccccc1Cn1c(-c2ccccc2OCC(N)=O)nc2ccccc21 [Compound A7, 2-{2-[1-(2-Methylbenzyl)-1H-benzimidazol-2-yl]-phenoxy}acetamide]	> 10	1 to 10
Cc1cccc(C)c1Cn1c(-c2c(F)cccc2OCC(N)=O)nc2ccccc21 [Compound A3, 2-{2-[1-(2,6-Dimethylbenzyl)-1H-benzimidazol-2-yl]-3-fluorophenoxy}acetamide]	–	0.01 to 1
Cc1cccc(C)c1Cn1c(-c2cccc(F)c2OCC(N)=O)nc2ccccc21 [Compound A10, 2-{2-[1-(2,6-Dimethylbenzyl)-1H-benzimidazol-2-yl]-6-fluorophenoxy}acetamide]	> 10	0.01 to 1
Cc1cc(C)c(Cn2c(-c3ccccc3OCC(N)=O)nc3ccc(F)cc32)c(C)c1 [Compound A6, 2-{2-[6-Fluoro-1-(2,4,6-trimethylbenzyl)-1H-benzimidazol-2-yl]phenoxy}acetamide]	> 10	> 10
Cc1cccc(C)c1Cn1c(-c2ncccc2OCC(N)=O)nc2ccccc21 [Compound A16, 2-{2-[1-(2,6-Dimethylbenzyl)-1H-benzimidazol-2-yl]pyridin-3-yloxy}acetamide]	–	> 10
Cc1cccc(C)c1C(=O)n1c(-c2ccccc2OCC(N)=O)nc2ccccc21 [Compound A25, 2-{2-[1-(2,6-Dimethylbenzoyl)-1H-benzimidazol-2-yl]phenoxy}acetamide]	> 10	> 10
NC(=O)COc1ccccc1-c1nc2ccccc2n1Cc1c(F)cccc1F [Compound A9, 2-{2-[1-(2,6-Difluorobenzyl)-1H-benzimidazol-2-yl]phenoxy}acetamide]	> 10	1 to 10
NC(=O)COc1ccccc1-c1nc2ccccc2n1Cc1c(F)cccc1Cl [Compound A20, 2-{2-[1-(2-Chloro-6-fluorobenzyl)-1H-benzimidazol-2-yl]phenoxy}acetamide]	> 10	1 to 10
NC(=O)COc1ccccc1-c1nc2cccc(Cl)c2n1Cc1c(Cl)cccc1Cl [Compound A21, 2-{2-[7-Chloro-1-(2,6-dichlorobenzyl)-1H-benzimidazol-2-yl]phenoxy}acetamide]	> 10	1 to 10
